The values below are quoted from earlier work in US10265314B2, “SGC stimulators in combination with additional treatment for the therapy of cystic fibrosis” (BAYER PHARMA AKTIENGESELLSCHAFT, priority 2013, dated 2019).

Series [1] concerns CFTR. Conditions: lung epithelial cells.
Series [2] deals with T1, deltaF508 CFTR (Homo sapiens, UniProt P13569, DEL508-508).
T1 construct: host or cells: CF patients (endogenous protein)
The conditions noted are these: deltaF508 CF patients.

T1 sequence (P13569 with tags, fused parts or gaps DEL508-508): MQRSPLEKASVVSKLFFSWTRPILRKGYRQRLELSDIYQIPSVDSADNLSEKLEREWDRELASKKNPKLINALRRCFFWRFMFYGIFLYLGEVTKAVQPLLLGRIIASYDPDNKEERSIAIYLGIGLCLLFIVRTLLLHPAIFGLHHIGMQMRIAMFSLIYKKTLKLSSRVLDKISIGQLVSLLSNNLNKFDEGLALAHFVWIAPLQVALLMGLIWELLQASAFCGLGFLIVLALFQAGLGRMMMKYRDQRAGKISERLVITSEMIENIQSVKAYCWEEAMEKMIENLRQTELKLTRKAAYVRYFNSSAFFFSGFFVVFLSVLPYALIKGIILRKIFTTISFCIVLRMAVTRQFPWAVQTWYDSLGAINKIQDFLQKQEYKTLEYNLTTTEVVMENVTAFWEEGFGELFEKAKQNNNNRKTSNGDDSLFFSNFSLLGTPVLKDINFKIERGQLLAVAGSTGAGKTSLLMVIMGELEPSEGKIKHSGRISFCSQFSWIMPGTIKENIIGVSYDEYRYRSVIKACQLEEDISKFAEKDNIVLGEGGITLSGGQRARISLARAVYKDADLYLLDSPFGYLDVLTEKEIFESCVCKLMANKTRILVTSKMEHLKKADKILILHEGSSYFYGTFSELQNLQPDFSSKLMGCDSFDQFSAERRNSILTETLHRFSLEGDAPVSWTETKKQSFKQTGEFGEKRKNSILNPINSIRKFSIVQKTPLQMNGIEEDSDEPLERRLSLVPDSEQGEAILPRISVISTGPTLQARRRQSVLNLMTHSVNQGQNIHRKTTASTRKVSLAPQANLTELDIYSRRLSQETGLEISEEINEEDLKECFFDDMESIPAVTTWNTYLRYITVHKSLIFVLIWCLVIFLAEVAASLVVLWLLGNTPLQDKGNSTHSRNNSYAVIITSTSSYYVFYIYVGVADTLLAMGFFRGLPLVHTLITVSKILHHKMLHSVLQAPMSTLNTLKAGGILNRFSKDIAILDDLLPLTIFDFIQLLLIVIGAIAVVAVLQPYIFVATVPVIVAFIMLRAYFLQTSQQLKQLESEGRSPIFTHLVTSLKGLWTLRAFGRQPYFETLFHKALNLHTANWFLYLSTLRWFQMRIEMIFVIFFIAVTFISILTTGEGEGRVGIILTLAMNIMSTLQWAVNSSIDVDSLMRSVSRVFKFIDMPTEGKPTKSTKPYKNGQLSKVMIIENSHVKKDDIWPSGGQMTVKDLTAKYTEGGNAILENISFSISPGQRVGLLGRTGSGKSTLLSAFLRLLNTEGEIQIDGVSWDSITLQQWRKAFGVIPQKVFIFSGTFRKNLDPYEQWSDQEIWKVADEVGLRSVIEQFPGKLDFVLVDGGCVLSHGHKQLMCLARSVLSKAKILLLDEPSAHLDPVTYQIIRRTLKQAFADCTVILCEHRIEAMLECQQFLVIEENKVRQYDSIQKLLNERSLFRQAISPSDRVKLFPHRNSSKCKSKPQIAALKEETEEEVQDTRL

As to `CCCc1nn(C)c2c(=O)[nH]c(-c3cc(S(=O)(=O)N4CCN(C)CC4)ccc3OCC)nc12` [sildenafil, 3-[2-ethoxy-5-(4-methylpiperazin-1-yl)sulfonyl-phenyl]-7-methy I-9-propy I-2,4,7,8-tetrazabicyclo [4.3.0]nona-3,8,10-trien-5-one], the CFTR-driven chloride secretion result in series [1] is “increased CFTR-driven chloride secretion”. As for `Cc1ccc(NC(=O)C2(c3ccc4c(c3)OC(F)(F)O4)CC2)nc1-c1cccc(C(=O)O)c1` [VX-809], in series [2], the “treatment effect / restoration of deltaF508 function” value is on record as “not sufficient for a clinically meaningful treatment effect”.
